# Test results from US20130079322A1, “CRYSTALLINE OF CARBAPENEM DERIVATIVE OR ITS HYDRATE, PREPARATION METHODS AND USES THEREOF” (priority 2010, published 2013).
# How the values were obtained:
# Moraxelle catarrhalis = assay: Antibacterial activity, standard agar double dilution method; type: cell-based; conditions: clinically isolated strains
# Source text: (§1) Test strains: the following clinically isolated strains were provided by public organizations.
# (§2) Gram-negative bacteria: ESBLs negative Escherichia coli, ESBLs positive Escherichia coli, Haemophilus influenzae, and Moraxelle catarrhalis.
# (§3) Test compound: the crystalline form I of compound A
# (§4) Experimental method: standard agar double dilution method was adopted.
# [1] = Stability assay at a high temperature of 60° C. (HPLC content and related substances); type: physicochemical
# Procedure: Condition for the assay: sampled after placing for 5 days, 10 days at a high temperature of 60° C., and the results thus obtained were compared with those obtained at day 0 by measuring related substances and contents thereof. The samples were sealed with plastic bags coated with aluminium foils during the assay. Amorphous compound A (refers to the amorphous for short hereinafter): self-prepared. Preparation method: see the preparation of amorphous compound A in the above preparative examples. The purity is 96.66%, and the batch number is 110901. The crystalline form I of compound A (refers to the crystalline form I for short hereinafter): prepared by example 1 of the Specification. The batch number is 20100315-4. Content determination is performed by external standard method using the sample at day 0 as control according to the high performance liquid chromatography in Chinese Pharmacopoeia, 2010 edition, appendix VD. Determination of related substances is performed by area normalization method according to the high performance liquid chromatography in Chinese Pharmacopoeia, 2010 edition, appendix VD. Mobile phase: A: 0.02 M diammonium phosphate (pH=5.2 adjusted by phosphoric acid):acetonitrile=95:5. • B: 0.02 M diammonium phosphate (pH=5.2 adjusted by phosphoric acid):acetonitrile=30:70. Gradient condition: see Table 1 The experimental results obtained: see Table 2
# [2] = tested on: Gram-positive and Gram-negative bacteria; assay: Antibacterial activity against clinically isolated strains (overall conclusion); type: cell-based; conditions: against both Gram-positive and Gram-negative bacteria
# Source text: as §1
# Gram-positive bacteria: methicillin sensitive Staphylococcus aureus (MSSA), and penicillin sensitive Streptococcus pneumoniae;
# as §2, §3, §4
# [3] = 60° C., day 5 compared with day 0
# [4] = 60° C., day 10 compared with day 0
Structure (SMILES),MIC90 (Moraxelle catarrhalis) [ng/mL],"Stability as compared with the amorphous of compound A ([1]; 60° C., 5 and 10 days)","Content decrease % [1, 3] [%]","Related substance % increase open ring % [1, 3] [%]","Related substance % increase total % [1, 3] [%]","Content decrease % [1, 4] [%]","Related substance % increase open ring % [1, 4] [%]","Related substance % increase total % [1, 4] [%]",Antibacterial activity [2],"Content % ([1]; 60° C., day 5, sample at day 0 as control) [%]","Related substance % open ring % ([1]; 60° C., day 5, sealed) [%]","Related substance % total % ([1]; 60° C., day 5, sealed) [%]",Related substance % open ring % ([1]; day 0) [%],Related substance % total % ([1]; day 0) [%]
C[C@@H](O)[C@H]1C(=O)N2C(C(=O)O)=C(S[C@@H]3CN[C@H](C(=O)NCc4ccc(S(N)(=O)=O)cc4)C3)[C@H](C)[C@H]12 [The crystalline form I],8,more stable,3.73,0.646,0.841,3.95,0.984,1.167,excellent antibacterial activity,,,,,
C[C@@H](O)[C@H]1C(=O)N2C(C(=O)O)=C(S[C@@H]3CN[C@H](C(=O)NCc4ccc(S(N)(=O)=O)cc4)C3)[C@H](C)[C@H]12 [The amorphous],,,26.84,2.852,11.38,,,,,73.16,3.328,20.675,0.476,9.295
